Results from ChEMBL document CHEMBL1201862, “PubChem BioAssay data set” (2004).
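Following 48 hours of exposure in 96-well plates, responses at five concentrations were used to interpolate endpoints linearly. Abbreviation: GI50, concentration required for 50% inhibition of growth.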 Activity calls are given as the source filed them. Cut-off read from the data, not from the text of the source: active = GI50 up to about 1.1 µM and inactive = higher.

Experiments:
Experiment in all cases: DTP human tumour cell line panel, 48 h
HOP-92 = test system: HOP-92
HCT-116 = test system: HCT-116
SK-MEL-28 = test system: SK-MEL-28
LOX IMVI = test system: LOX IMVI
UACC-62 = test system: UACC-62
786-0 = test system: 786-0
HCT-15 = test system: HCT-15
NCI-H23 = test system: NCI-H23
OVCAR-8 = test system: OVCAR-8
U-251 = test system: U-251
A549 = test system: A549
HOP-62 = test system: HOP-62
SNB-19 = test system: SNB-19
CAKI-1 = test system: CAKI-1
RXF 393 = test system: RXF 393
MDA-N = test system: MDA-N
Hs-578T = test system: Hs-578T
NCI/ADR-RES = test system: NCI/ADR-RES

SMILES	GI50 (HOP-92)	GI50 (HCT-116)	GI50 (SK-MEL-28)	GI50 (LOX IMVI)	GI50 (UACC-62)	GI50 (786-0)	GI50 (HCT-15)	GI50 (NCI-H23)	GI50 (OVCAR-8)	GI50 (U-251)	GI50 (A549)	GI50 (HOP-62)	GI50 (SNB-19)	GI50 (CAKI-1)	GI50 (RXF 393)	GI50 (MDA-N)	GI50 (Hs-578T)	GI50 (NCI/ADR-RES)
CCOC(=O)C(=C=Cc1cccs1)C(=O)c1ccccc1	5.15 µM (inactive)	14.6 µM (inactive)	14.8 µM (inactive)	12.4 µM (inactive)	15.5 µM (inactive)	16 µM (inactive)	16.6 µM	15.4 µM (inactive)	15.8 µM (inactive)	16.9 µM (inactive)	18.9 µM (inactive)	18.7 µM (inactive)						
C=CCc1cc(-c2cc(CC=C)c(O)c(CNC)c2)cc(CNC)c1O	11.1 µM (inactive)	14.7 µM (inactive)	19.5 µM (inactive)	13.3 µM (inactive)	18.1 µM (inactive)	15.5 µM (inactive)	16.6 µM	15.8 µM (inactive)	17.6 µM (inactive)	14.9 µM (inactive)	17.8 µM (inactive)	18.8 µM (inactive)	13.3 µM (inactive)					
COc1ccc(/C=N/N=C(\N)NO)cc1O	20.6 µM (inactive)	37.5 µM (inactive)	49.8 µM (inactive)	26.7 µM (inactive)	31.1 µM (inactive)	18.5 µM (inactive)	42.9 µM	31.9 µM (inactive)		62.5 µM (inactive)	27.6 µM (inactive)		> 100 µM (inactive)	48.2 µM (inactive)	41.7 µM (inactive)			
N#CC1CC2(C(=O)C1=O)c1ccccc1-c1ccccc12 (stereo unspecified)		> 100 µM (inactive)	> 100 µM (inactive)	> 100 µM (inactive)	> 100 µM (inactive)	> 100 µM (inactive)	> 100 µM	> 100 µM (inactive)	> 100 µM (inactive)	> 100 µM (inactive)	> 100 µM (inactive)	> 100 µM (inactive)	> 100 µM (inactive)	> 100 µM (inactive)	> 100 µM (inactive)			
N#CC(C#N)=C1SCC(=O)CS1	> 100 µM (inactive)	> 100 µM (inactive)		> 100 µM (inactive)	> 100 µM (inactive)	> 100 µM (inactive)	> 100 µM	> 100 µM (inactive)	> 100 µM (inactive)	> 100 µM (inactive)	> 100 µM (inactive)	> 100 µM (inactive)	> 100 µM (inactive)	> 100 µM (inactive)	> 100 µM (inactive)			
N#Cc1nc(-c2ccccc2O)oc1N	> 100 µM (inactive)	78.2 µM (inactive)	> 100 µM (inactive)	53.7 µM (inactive)	95.9 µM (inactive)	70.1 µM (inactive)	43.5 µM		89.1 µM (inactive)	> 100 µM (inactive)	63.5 µM (inactive)	> 100 µM (inactive)	> 100 µM (inactive)	36.9 µM (inactive)	55.7 µM (inactive)	> 100 µM (inactive)	40.9 µM (inactive)	
C=Cc1c(-c2ccccc2)cnc2[nH]c3ccccc3c12		> 50 µM (inactive)	> 50 µM (inactive)	> 50 µM (inactive)	> 50 µM (inactive)	> 50 µM (inactive)	> 50 µM	> 50 µM (inactive)	> 50 µM (inactive)	> 50 µM (inactive)	> 50 µM (inactive)	> 50 µM (inactive)	> 50 µM (inactive)	> 50 µM (inactive)	> 50 µM (inactive)			
CC(=O)Oc1ccccc1C(=O)C1c2cccc(O)c2C(=O)c2c(O)cccc21	1.18 µM (inactive)	0.897 µM (active)	1.64 µM (inactive)	1.62 µM (inactive)	0.794 µM (active)	1.67 µM (inactive)	1.08 µM	1.09 µM (active)	1.23 µM (inactive)	0.494 µM (active)	0.776 µM (active)	1.44 µM (inactive)	0.416 µM (active)	1.95 µM (inactive)	0.423 µM (active)			
O=C1CSC(/C(=C/c2ccccc2)c2nc3ccccc3[nH]2)=N1	61.4 µM (inactive)	41.7 µM (inactive)	> 100 µM (inactive)	> 100 µM (inactive)	49.8 µM (inactive)	65.2 µM (inactive)	> 100 µM	28.1 µM (inactive)	47.2 µM (inactive)	23.3 µM (inactive)	72.6 µM (inactive)	41.2 µM (inactive)	25.9 µM (inactive)	> 100 µM (inactive)				
CCCC(O)c1cn(-c2cccc(S(=O)(=O)O)c2)nn1 (stereo unspecified)	> 100 µM (inactive)	> 100 µM (inactive)	> 100 µM (inactive)	> 100 µM (inactive)	> 100 µM (inactive)	> 100 µM (inactive)	> 100 µM	> 100 µM (inactive)	> 100 µM (inactive)	> 100 µM (inactive)	> 100 µM (inactive)	> 100 µM (inactive)	> 100 µM (inactive)	> 100 µM (inactive)	> 100 µM (inactive)			
[N-]=[N+]=NC(c1cn(C2CC(O)C(CO)O2)c(=O)[nH]c1=O)C(Br)Br (stereo unspecified)	> 100 µM (inactive)	> 100 µM (inactive)	> 100 µM (inactive)	> 100 µM (inactive)	> 100 µM (inactive)	> 100 µM (inactive)	> 100 µM	> 100 µM (inactive)	> 100 µM (inactive)	> 100 µM (inactive)	> 100 µM (inactive)	> 100 µM (inactive)	> 100 µM (inactive)	> 100 µM (inactive)	> 100 µM (inactive)			
CC1(C)OC[C@@H]([C@H](C=O)OCc2ccccc2)O1	> 100 µM (inactive)	> 100 µM (inactive)	> 100 µM (inactive)	> 100 µM (inactive)	> 100 µM (inactive)	> 100 µM (inactive)	> 100 µM	> 100 µM (inactive)	> 100 µM (inactive)	> 100 µM (inactive)	> 100 µM (inactive)	> 100 µM (inactive)	> 100 µM (inactive)			> 100 µM (inactive)	> 100 µM (inactive)	> 100 µM (inactive)
CC(C)(C)NNC(=O)/C(=C/c1ccc([N+](=O)[O-])cc1)NC(=O)c1ccccc1	> 100 µM (inactive)	> 10 µM (inactive)	> 100 µM (inactive)	17.2 µM (inactive)	> 100 µM (inactive)	48.5 µM (inactive)	> 100 µM	> 100 µM (inactive)	> 100 µM (inactive)	39 µM (inactive)	> 100 µM (inactive)	> 100 µM (inactive)	> 100 µM (inactive)	> 100 µM (inactive)	> 100 µM (inactive)			
C/C(=N/Nc1ccc([N+](=O)[O-])cc1[N+](=O)[O-])C(CC(C(=O)Nc1ccccc1C)/C(C)=N\Nc1ccc([N+](=O)[O-])cc1[N+](=O)[O-])C(=O)Nc1ccccc1C (stereo unspecified)	7.08 µM (inactive)	13.5 µM (inactive)	21.9 µM (inactive)	14.4 µM (inactive)	19.6 µM (inactive)	17.9 µM (inactive)	32.9 µM	11.3 µM (inactive)	6 µM (inactive)	6.12 µM (inactive)	19.7 µM (inactive)	11.9 µM (inactive)	14 µM (inactive)	14.2 µM (inactive)	6.49 µM (inactive)			
N#CCC(=O)N1CCCCCCC1		> 100 µM (inactive)	> 100 µM (inactive)	> 100 µM (inactive)	> 100 µM (inactive)	> 100 µM (inactive)	16.8 µM	> 100 µM (inactive)		> 100 µM (inactive)	> 100 µM (inactive)	> 100 µM (inactive)	> 100 µM (inactive)	> 100 µM (inactive)	> 100 µM (inactive)			
CCN(CC)Cc1cc(Nc2c3ccccc3nc3c2[nH]c2ccccc23)ccc1O	1.5 µM (inactive)	0.345 µM (active)	1.8 µM (inactive)	1.22 µM (inactive)	1.62 µM (inactive)	1.13 µM (inactive)	0.853 µM	1.43 µM (inactive)	1.08 µM (active)	1.17 µM (inactive)	0.352 µM (active)	1.14 µM (inactive)	1.63 µM (inactive)	1.46 µM (inactive)	1.31 µM (inactive)			
COC1(C)C(=O)N2C1N(C(=O)OC(C)(C)C)CC2(C)C (stereo unspecified)	> 100 µM (inactive)	96.4 µM (inactive)	> 100 µM (inactive)	23.5 µM (inactive)	> 100 µM (inactive)	> 100 µM (inactive)	63.2 µM	> 100 µM (inactive)	> 100 µM (inactive)	> 100 µM (inactive)	> 100 µM (inactive)	> 100 µM (inactive)	> 100 µM (inactive)	> 100 µM (inactive)	> 100 µM (inactive)			
COc1ccc(C(=O)C/C(=N/NC(N)=S)C(=O)Nc2ccccc2)cc1		> 100 µM (inactive)	> 100 µM (inactive)	> 100 µM (inactive)	> 100 µM (inactive)	> 100 µM (inactive)	> 100 µM	> 100 µM (inactive)	> 100 µM (inactive)	> 100 µM (inactive)	> 100 µM (inactive)		> 100 µM (inactive)	> 100 µM (inactive)	> 100 µM (inactive)			
COC(=O)C1=C(O)C(O)=C(C(=O)OC)CC1	> 100 µM (inactive)	15.1 µM (inactive)	> 100 µM (inactive)	> 100 µM (inactive)	> 100 µM (inactive)	> 100 µM (inactive)	> 100 µM	> 100 µM (inactive)	> 100 µM (inactive)	> 100 µM (inactive)	37 µM (inactive)	> 100 µM (inactive)	> 100 µM (inactive)	> 100 µM (inactive)	17.9 µM (inactive)			
COC(=O)C1=C(C)C(=O)[C@H]2C(C(=O)OC)CCCC[C@@H]12 (stereo partly specified)	32.3 µM (inactive)	83.9 µM (inactive)	> 100 µM (inactive)		> 100 µM (inactive)	> 100 µM (inactive)	> 100 µM	> 100 µM (inactive)	> 100 µM (inactive)	> 100 µM (inactive)	> 100 µM (inactive)	> 100 µM (inactive)	> 100 µM (inactive)	> 100 µM (inactive)	> 100 µM (inactive)			
